Assay results from PubChem BioAssay (NCI).
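The compound was tested at five concentrations on cells cultured in 96-well plates, with a 48-hour exposure period. TGI denotes the concentration required for complete inhibition of growth.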

What was measured:
Test in all cases: DTP human tumour cell line panel, 48 h
EKVX NSCLC = tested on: EKVX NSCLC
IGROV1 ovarian = tested on: IGROV1 ovarian
SNB-75 CNS = tested on: SNB-75 CNS
SK-OV-3 ovarian = tested on: SK-OV-3 ovarian
A549 NSCLC = tested on: A549 NSCLC
NCI-H226 lung = tested on: NCI-H226 lung
UO-31 renal = tested on: UO-31 renal
OVCAR-8 ovarian = tested on: OVCAR-8 ovarian
SF-539 CNS = tested on: SF-539 CNS
RPMI-8226 leukemia = tested on: RPMI-8226 leukemia
TK-10 renal = tested on: TK-10 renal
MOLT-4 leukemia = tested on: MOLT-4 leukemia
UACC-257 melanoma = tested on: UACC-257 melanoma
SN12C renal = tested on: SN12C renal
OVCAR-3 ovarian = tested on: OVCAR-3 ovarian
MCF7 breast = tested on: MCF7 breast
MDA-N = tested on: MDA-N
NCI-H460 lung = tested on: NCI-H460 lung
SNB-19 CNS = tested on: SNB-19 CNS
NCI/ADR-RES ovarian = tested on: NCI/ADR-RES ovarian
BT-549 breast = tested on: BT-549 breast
DU-145 prostate = tested on: DU-145 prostate
K-562 leukemia = tested on: K-562 leukemia
NCI-H522 lung = tested on: NCI-H522 lung
SF-295 CNS = tested on: SF-295 CNS
MDA-MB-231 breast = tested on: MDA-MB-231 breast
COLO 205 colon = tested on: COLO 205 colon
786-0 renal = tested on: 786-0 renal
OVCAR-4 ovarian = tested on: OVCAR-4 ovarian
M14 melanoma = tested on: M14 melanoma
ACHN renal = tested on: ACHN renal
SW-620 colon = tested on: SW-620 colon
SK-MEL-28 melanoma = tested on: SK-MEL-28 melanoma
HCT-15 colon = tested on: HCT-15 colon
OVCAR-5 ovarian = tested on: OVCAR-5 ovarian
HT29 colon = tested on: HT29 colon
SK-MEL-2 melanoma = tested on: SK-MEL-2 melanoma
HOP-62 NSCLC = tested on: HOP-62 NSCLC
MDA-MB-435 = tested on: MDA-MB-435
LOX IMVI melanoma = tested on: LOX IMVI melanoma
KM12 colon = tested on: KM12 colon
HCT-116 colon = tested on: HCT-116 colon
HCC-2998 colon = tested on: HCC-2998 colon
HOP-92 NSCLC = tested on: HOP-92 NSCLC
SF-268 CNS = tested on: SF-268 CNS
PC-3 prostate = tested on: PC-3 prostate
A498 renal = tested on: A498 renal
CAKI-1 renal = tested on: CAKI-1 renal
UACC-62 melanoma = tested on: UACC-62 melanoma
T-47D breast = tested on: T-47D breast
U251 CNS = tested on: U251 CNS
NCI-H23 lung = tested on: NCI-H23 lung
SK-MEL-5 melanoma = tested on: SK-MEL-5 melanoma
HS 578T breast = tested on: HS 578T breast
MALME-3M melanoma = tested on: MALME-3M melanoma
RXF 393 renal = tested on: RXF 393 renal
CCRF-CEM leukemia = tested on: CCRF-CEM leukemia
HL-60(TB) leukemia = tested on: HL-60(TB) leukemia

`COc1ccc(N2C(=O)C3c4[nH]c5cccc(Cl)c5c4C4CCC(C(C)(C)C)CC4C3C2=O)cc1` (stereo unspecified) was tested, and the TGI (EKVX NSCLC) was > 100 µM, the TGI (IGROV1 ovarian) was > 100 µM and the TGI (SNB-75 CNS) was 53.2 µM. For the same compound, the TGI (SK-OV-3 ovarian) was > 100 µM, the TGI (A549 NSCLC) was > 100 µM and the TGI (NCI-H226 lung) was > 100 µM. The TGI (UO-31 renal) was > 100 µM, the TGI (OVCAR-8 ovarian) was > 100 µM and the TGI (SF-539 CNS) was > 100 µM. The TGI (RPMI-8226 leukemia) was > 100 µM, the TGI (TK-10 renal) was > 100 µM and the TGI (MOLT-4 leukemia) was > 100 µM. The TGI (UACC-257 melanoma) was > 100 µM, the TGI (SN12C renal) was > 100 µM and the TGI (OVCAR-3 ovarian) was > 100 µM. The TGI (MCF7 breast) was > 100 µM, the TGI (MDA-N) was > 100 µM and the TGI (NCI-H460 lung) was > 100 µM. For the same compound, the TGI (SNB-19 CNS) was > 100 µM, the TGI (NCI/ADR-RES ovarian) was > 100 µM and the TGI (BT-549 breast) was > 100 µM. The TGI (DU-145 prostate) was > 100 µM, the TGI (K-562 leukemia) was > 100 µM and the TGI (NCI-H522 lung) was > 100 µM. For the same compound, the TGI (SF-295 CNS) was > 100 µM, the TGI (MDA-MB-231 breast) was > 100 µM and the TGI (COLO 205 colon) was > 100 µM. For the same compound, the TGI (786-0 renal) was > 100 µM, the TGI (OVCAR-4 ovarian) was > 100 µM and the TGI (M14 melanoma) was > 100 µM. For the same compound, the TGI (ACHN renal) was > 100 µM, the TGI (SW-620 colon) was > 100 µM and the TGI (SK-MEL-28 melanoma) was > 100 µM. The TGI (HCT-15 colon) was > 100 µM, the TGI (OVCAR-5 ovarian) was > 100 µM and the TGI (HT29 colon) was > 100 µM. For the same compound, the TGI (SK-MEL-2 melanoma) was > 100 µM, the TGI (HOP-62 NSCLC) was 53.5 µM and the TGI (MDA-MB-435) was > 100 µM. The TGI (LOX IMVI melanoma) was > 100 µM, the TGI (KM12 colon) was > 100 µM and the TGI (HCT-116 colon) was > 100 µM. The TGI (HCC-2998 colon) was > 100 µM, the TGI (HOP-92 NSCLC) was > 100 µM and the TGI (SF-268 CNS) was > 100 µM. The TGI (PC-3 prostate) was > 100 µM, the TGI (A498 renal) was > 100 µM and the TGI (CAKI-1 renal) was > 100 µM. For the same compound, the TGI (UACC-62 melanoma) was > 100 µM, the TGI (T-47D breast) was > 100 µM and the TGI (U251 CNS) was > 100 µM. For the same compound, the TGI (NCI-H23 lung) was > 100 µM, the TGI (SK-MEL-5 melanoma) was > 100 µM and the TGI (HS 578T breast) was 90.7 µM. The TGI (MALME-3M melanoma) was > 100 µM.

`COc1ccc2c(c1)/C(=C\c1c(-c3ccccc3)nc3n1CCS3)C(=O)N2` showed a TGI (EKVX NSCLC) of 48 µM, a TGI (IGROV1 ovarian) of 21.4 µM and a TGI (SNB-75 CNS) of 36.8 µM. The TGI (SK-OV-3 ovarian) was 34.5 µM, the TGI (A549 NSCLC) was 55.9 µM and the TGI (UO-31 renal) was 34.2 µM. For the same compound, the TGI (OVCAR-8 ovarian) was 47.5 µM, the TGI (SF-539 CNS) was 19.1 µM and the TGI (RPMI-8226 leukemia) was 32.2 µM. The TGI (TK-10 renal) was 27.8 µM, the TGI (MOLT-4 leukemia) was 16.9 µM and the TGI (UACC-257 melanoma) was 27.4 µM. The TGI (SN12C renal) was 27.6 µM, the TGI (OVCAR-3 ovarian) was 15.6 µM and the TGI (MCF7 breast) was 29 µM. The TGI (MDA-N) was 5.62 µM, the TGI (NCI-H460 lung) was 14.4 µM and the TGI (SNB-19 CNS) was > 100 µM. The TGI (NCI/ADR-RES ovarian) was 35.4 µM, the TGI (BT-549 breast) was 32.7 µM and the TGI (DU-145 prostate) was 60 µM. For the same compound, the TGI (K-562 leukemia) was 17 µM, the TGI (NCI-H522 lung) was 24.4 µM and the TGI (SF-295 CNS) was 15.1 µM. It also gave a TGI (RXF 393 renal) of 34.3 µM, a TGI (MDA-MB-231 breast) of 17.9 µM and a TGI (COLO 205 colon) of 11.2 µM. The TGI (786-0 renal) was 28.6 µM, the TGI (CCRF-CEM leukemia) was 26.9 µM and the TGI (M14 melanoma) was 23 µM. The TGI (ACHN renal) was 56.8 µM, the TGI (SW-620 colon) was 16.3 µM and the TGI (SK-MEL-28 melanoma) was 27.7 µM. The TGI (HCT-15 colon) was 40.6 µM, the TGI (OVCAR-5 ovarian) was 51.8 µM and the TGI (HT29 colon) was 16 µM. The TGI (SK-MEL-2 melanoma) was 20.2 µM, the TGI (HOP-62 NSCLC) was 27.6 µM and the TGI (MDA-MB-435) was 7.19 µM. For the same compound, the TGI (LOX IMVI melanoma) was 20.6 µM, the TGI (KM12 colon) was 19.6 µM and the TGI (HCT-116 colon) was 18.2 µM. The TGI (HCC-2998 colon) was 22.9 µM, the TGI (HOP-92 NSCLC) was 30.8 µM and the TGI (SF-268 CNS) was 28.1 µM. The TGI (PC-3 prostate) was 17.2 µM, the TGI (A498 renal) was 21.3 µM and the TGI (CAKI-1 renal) was 37.4 µM. For the same compound, the TGI (HL-60(TB) leukemia) was 11.4 µM, the TGI (UACC-62 melanoma) was 18.2 µM and the TGI (T-47D breast) was 61.6 µM. It also gave a TGI (U251 CNS) of 20.3 µM, a TGI (NCI-H23 lung) of 33.4 µM and a TGI (SK-MEL-5 melanoma) of 17 µM. The TGI (HS 578T breast) was 38.7 µM and the TGI (MALME-3M melanoma) was 30.7 µM.
